Source: ChEMBL document CHEMBL1155722, “Biological and mechanistic activities of xanthorrizol and 4-(1',5'-dimethylhex-4'-enyl)-2-methylphenol isolated from Iostephane heterophylla” (2001)
≈ marks a conversion by molar mass, not a printed value.

How the values were obtained:
[1] = test system: Escherichia coli; assay: Inhibition of RNA synthesis in Escherichia coli assessed as incorporation of [3H]uridine at 16 ug/mL by LKB Betaplate scintillation counter relative to control; type: functional; set-up: scale not given: the % may be the effect or the level left
[2] = test system: Candida albicans; assay: Antimicrobial activity against Candida albicans 54 after 18 hrs by microbroth dilution method; type: functional; details: Candida albicans, 54, 18 h
[3] = test system: Staphylococcus aureus; assay: Antimicrobial activity against Staphylococcus aureus ATCC 25923 after 18 hrs by microbroth dilution method; type: functional; details: ATCC 25923, 18 h
[4] = test system: Escherichia coli; assay: Antimicrobial activity against Escherichia coli 442 after 18 hrs by microbroth dilution method; type: functional; details: Escherichia coli, 442, 18 h
[5] = test system: Escherichia coli; assay: Inhibition of DNA synthesis in Escherichia coli assessed as incorporation of [3H]thymidine at 64 ug/mL by LKB Betaplate scintillation counter relative to control; type: functional; set-up: scale not given: the % may be the effect or the level left
[6] = test system: Escherichia coli; assay: Inhibition of DNA synthesis in Escherichia coli assessed as incorporation of [3H]thymidine at 8 ug/mL by LKB Betaplate scintillation counter relative to control; type: functional; set-up: scale not given: the % may be the effect or the level left
[7] = test system: Escherichia coli; assay: Inhibition of protein synthesis in Escherichia coli assessed as incorporation of [3H]amino acid at 128 ug/mL by LKB Betaplate scintillation counter relative to control; type: functional; set-up: scale not given: the % may be the effect or the level left
[8] = test system: Pseudomonas aeruginosa; assay: Antimicrobial activity against Pseudomonas aeruginosa 339 after 18 hrs by microbroth dilution method; type: functional; details: Pseudomonas aeruginosa, 339, 18 h
[9] = test system: Escherichia coli; assay: Inhibition of DNA synthesis in Escherichia coli assessed as incorporation of [3H]thymidine at 16 ug/mL by LKB Betaplate scintillation counter relative to control; type: functional; set-up: scale not given: the % may be the effect or the level left
[10] = test system: Escherichia coli; assay: Inhibition of protein synthesis in Escherichia coli assessed as incorporation of [3H]amino acid at 64 ug/mL by LKB Betaplate scintillation counter relative to control; type: functional; set-up: scale not given: the % may be the effect or the level left
[11] = test system: Escherichia coli; assay: Inhibition of RNA synthesis in Escherichia coli assessed as incorporation of [3H]uridine at 128 ug/mL by LKB Betaplate scintillation counter relative to control; type: functional; set-up: scale not given: the % may be the effect or the level left
[12] = test system: Escherichia coli; assay: Inhibition of protein synthesis in Escherichia coli assessed as incorporation of [3H]amino acid at 8 ug/mL by LKB Betaplate scintillation counter relative to control; type: functional; set-up: scale not given: the % may be the effect or the level left
[13] = test system: Escherichia coli; assay: Inhibition of RNA synthesis in Escherichia coli assessed as incorporation of [3H]uridine at 32 ug/mL by LKB Betaplate scintillation counter relative to control; type: functional; set-up: scale not given: the % may be the effect or the level left
[14] = test system: Escherichia coli; assay: Inhibition of RNA synthesis in Escherichia coli assessed as incorporation of [3H]uridine at 64 ug/mL by LKB Betaplate scintillation counter relative to control; type: functional; set-up: scale not given: the % may be the effect or the level left
[15] = test system: Escherichia coli; assay: Inhibition of DNA synthesis in Escherichia coli assessed as incorporation of [3H]thymidine at 32 ug/mL by LKB Betaplate scintillation counter relative to control; type: functional; set-up: scale not given: the % may be the effect or the level left
[16] = test system: Enterococcus faecium; assay: Antimicrobial activity against vancomycin-resistant Enterococcus faecium 379 after 18 hrs by microbroth dilution method; type: functional; details: Enterococcus faecium, 379, 18 h
[17] = test system: Enterococcus faecium; assay: Antimicrobial activity against Enterococcus faecium 436 after 18 hrs by microbroth dilution method; type: functional; details: Enterococcus faecium, 436, 18 h
[18] = test system: Staphylococcus aureus; assay: Antimicrobial activity against methicillin-resistant Staphylococcus aureus 310 after 18 hrs by microbroth dilution method; type: functional; details: Staphylococcus aureus, 310, 18 h
[19] = test system: Escherichia coli; assay: Inhibition of protein synthesis in Escherichia coli assessed as incorporation of [3H]amino acid at 32 ug/mL by LKB Betaplate scintillation counter relative to control; type: functional; set-up: scale not given: the % may be the effect or the level left
[20] = test system: Escherichia coli; assay: Inhibition of RNA synthesis in Escherichia coli assessed as incorporation of [3H]uridine at 8 ug/mL by LKB Betaplate scintillation counter relative to control; type: functional; set-up: scale not given: the % may be the effect or the level left
[21] = test system: Bacillus subtilis; assay: Antimicrobial activity against Bacillus subtilis 327 after 18 hrs by microbroth dilution method; type: functional; details: Bacillus subtilis, 327, 18 h
[22] = test system: Escherichia coli; assay: Inhibition of protein synthesis in Escherichia coli assessed as incorporation of [3H]amino acid at 16 ug/mL by LKB Betaplate scintillation counter relative to control; type: functional; set-up: scale not given: the % may be the effect or the level left
[23] = test system: Staphylococcus aureus; assay: Antimicrobial activity against methicillin-sensitive Staphylococcus aureus 375 after 18 hrs by microbroth dilution method; type: functional; details: Staphylococcus aureus, 375, 18 h
[24] = test system: Escherichia coli; assay: Antimicrobial activity against Escherichia coli 389 after 18 hrs by microbroth dilution method; type: functional; details: Escherichia coli, 389, 18 h
[25] = test system: Escherichia coli; assay: Inhibition of DNA synthesis in Escherichia coli assessed as incorporation of [3H]thymidine at 128 ug/mL by LKB Betaplate scintillation counter relative to control; type: functional; set-up: scale not given: the % may be the effect or the level left
[26] = test system: Klebsiella pneumoniae; assay: Antimicrobial activity against Klebsiella pneumoniae 425 after 18 hrs by microbroth dilution method; type: functional; details: Klebsiella pneumoniae, 425, 18 h
[27] = test system: Escherichia coli; assay: Antimicrobial activity against Escherichia coli ATCC 25922 after 18 hrs by microbroth dilution method; type: functional; details: ATCC 25922, 18 h
[28] = test system: Staphylococcus aureus; assay: Antimicrobial activity against Staphylococcus aureus after 18 hrs by micro-broth dilution method; type: functional
[29] = test system: Escherichia coli; assay: Inhibition of RNA synthesis in Escherichia coli assessed as incorporation of [3H]uridine at 25 ug/mL by LKB Betaplate scintillation counter relative to control; type: functional; set-up: scale not given: the % may be the effect or the level left
[30] = test system: Escherichia coli; assay: Inhibition of protein synthesis in Escherichia coli assessed as incorporation of [3H]amino acid at 25 ug/mL by LKB Betaplate scintillation counter relative to control; type: functional; set-up: scale not given: the % may be the effect or the level left
[31] = test system: Escherichia coli; assay: Inhibition of DNA synthesis in Escherichia coli assessed as incorporation of [3H]thymidine at 25 ug/mL by LKB Betaplate scintillation counter relative to control; type: functional; set-up: scale not given: the % may be the effect or the level left
[32] = test system: Escherichia coli; assay: Inhibition of RNA synthesis in Escherichia coli assessed as incorporation of [3H]uridine at 0.25 ug/mL by LKB Betaplate scintillation counter relative to control; type: functional; set-up: scale not given: the % may be the effect or the level left
[33] = test system: Escherichia coli; assay: Inhibition of protein synthesis in Escherichia coli assessed as incorporation of [3H]amino acid at 0.25 ug/mL by LKB Betaplate scintillation counter relative to control; type: functional; set-up: scale not given: the % may be the effect or the level left
[34] = test system: Escherichia coli; assay: Inhibition of DNA synthesis in Escherichia coli assessed as incorporation of [3H]thymidine at 0.25 ug/mL by LKB Betaplate scintillation counter relative to control; type: functional; set-up: scale not given: the % may be the effect or the level left
[35] = Ratio of LD50 for CD1 mouse to ED50 for Staphylococcus aureus infected in single subcutaneously dosed CD1 moue
[36] = test system: Staphylococcus aureus; assay: Antimicrobial activity against Staphylococcus aureus infected in CD1 mouse administered subcutaneously after 30 mins infection measured after 7 days; type: functional; details: sc
[37] = test system: Staphylococcus aureus; assay: Antimicrobial activity against Staphylococcus aureus infected in CD1 mouse administered single oral dose after 7 days; type: functional; details: 168 h

With `CC(C)=CCC[C@@H](C)c1ccc(O)c(C)c1` the Activity [1] was 60.35%, the MIC [2] was 128 µg/mL (≈ 586 µM) and the MIC [3] was 16 µg/mL (≈ 73.3 µM). It also gave an MIC [4] of over 128 µg/mL, an Activity [5] of 37.82% and an Activity [6] of 75.57%. It also gave an Activity [7] of 25.34%, an MIC [8] of over 128 µg/mL and an Activity [9] of 63.06%. The Activity [10] was 39.06%, the Activity [11] was 34.04% and the Activity [12] was 68%. For the same compound, the Activity [13] was 50.02%, the Activity [14] was 39.08% and the Activity [15] was 48.24%. It also gave an MIC [16] of 16 µg/mL (≈ 73.3 µM), an MIC [17] of 16 µg/mL (≈ 73.3 µM) and an MIC [18] of 32 µg/mL (≈ 147 µM). For the same compound, the Activity [19] was 44.2%, the Activity [20] was 66.73% and the MIC [21] was 16 µg/mL (≈ 73.3 µM). It also gave an Activity [22] of 52.28%, an MIC [23] of 16 µg/mL (≈ 73.3 µM) and an MIC [24] of 32 µg/mL (≈ 147 µM). For the same compound, the Activity [25] was 30.71%, the MIC [26] was 32 µg/mL (≈ 147 µM) and the MIC [27] was over 128 µg/mL.
Compound `C[C@@]12C[C@@]34CC[C@H]5[C@@](C)(CCC[C@]5(C)C(=O)O)[C@@H]3C[C@H]1[C@H]2C4` has an MIC [28] of 128 µg/mL (≈ 423 µM).
Compound `O=C(N[C@H](CO)[C@H](O)c1ccc([N+](=O)[O-])cc1)C(Cl)Cl` [CHLORAMPHENICOL] has an Activity [29] of 85.76%, an Activity [30] of 18.96% and an Activity [31] of 82.98%.
Compound `CC1(C)S[C@@H]2[C@H](NC(=O)Cc3ccccc3)C(=O)N2[C@H]1C(=O)O` [PENICILLIN G] has an MIC [2] of over 128 µg/mL, an MIC [3] of 0.06 µg/mL (≈ 0.179 µM) and an MIC [8] of over 128 µg/mL. It also gave an MIC [16] of 32 µg/mL (≈ 95.7 µM), an MIC [17] of 32 µg/mL (≈ 95.7 µM) and an MIC [18] of 64 µg/mL (≈ 191 µM). It also gave an MIC [21] of 32 µg/mL (≈ 95.7 µM), an MIC [23] of 0.06 µg/mL (≈ 0.179 µM) and an MIC [24] of 2 µg/mL (≈ 5.98 µM). For the same compound, the MIC [26] was 128 µg/mL (≈ 383 µM) and the MIC [27] was 128 µg/mL (≈ 383 µM).
`CO[C@H]1/C=C/O[C@@]2(C)Oc3c(C)c(O)c4c(O)c(c(/C=N/N5CCN(C)CC5)c(O)c4c3C2=O)NC(=O)/C(C)=C\C=C\[C@H](C)[C@H](O)[C@@H](C)[C@@H](O)[C@@H](C)[C@H](OC(C)=O)[C@@H]1C` [RIFAMPIN] showed an Activity [32] of 1.17%, an Activity [33] of 27.82% and an Activity [34] of 89.56%.
In the case of `CN[C@H](CC(C)C)C(=O)N[C@H]1C(=O)N[C@@H](CC(N)=O)C(=O)N[C@H]2C(=O)N[C@H]3C(=O)N[C@H](C(=O)N[C@H](C(=O)O)c4cc(O)cc(O)c4-c4cc3ccc4O)[C@H](O)c3ccc(c(Cl)c3)Oc3cc2cc(c3O[C@@H]2O[C@H](CO)[C@@H](O)[C@H](O)[C@H]2O[C@H]2C[C@](C)(N)[C@H](O)[C@H](C)O2)Oc2ccc(cc2Cl)[C@H]1O` [VANCOMYCIN], the “Ratio LD50/ED50” value [35] is reported as over 1000, the ED50 [36] is reported as 1 mg/kg and the ED50 [37] is reported as 230 mg/kg.
In the case of `CC(C)=CCC[C@@H](C)c1ccc(C)c(O)c1` [XANTHORRIZOL], the Activity [1] is reported as 91.13%, the MIC [2] is reported as 128 µg/mL (≈ 586 µM) and the MIC [3] is reported as 16 µg/mL (≈ 73.3 µM). For the same compound, the MIC [4] was over 128 µg/mL, the Activity [5] was 7.03% and the Activity [6] was 95.33%. For the same compound, the Activity [7] was 17.12%, the MIC [8] was over 128 µg/mL and the Activity [9] was 99.98%. The Activity [10] was 23.39%, the Activity [11] was 1.91% and the Activity [12] was 102.1%. It also gave an Activity [13] of 48.56%, an Activity [14] of 8.72% and an Activity [15] of 35.75%. For the same compound, the MIC [16] was 16 µg/mL (≈ 73.3 µM), the MIC [17] was 16 µg/mL (≈ 73.3 µM) and the MIC [18] was 32 µg/mL (≈ 147 µM). The Activity [19] was 33.57%, the Activity [20] was 96.87% and the MIC [21] was 16 µg/mL (≈ 73.3 µM). For the same compound, the Activity [22] was 96.92%, the MIC [23] was 16 µg/mL (≈ 73.3 µM) and the MIC [24] was 32 µg/mL (≈ 147 µM). It also gave an Activity [25] of 1.52%, an ED50 [36] of over 32 mg/kg and an MIC [26] of 32 µg/mL (≈ 147 µM). The MIC [27] was over 128 µg/mL.
